This note sets out measurements from ChEMBL document CHEMBL1141226, “Discovery of a potent, orally available, and isoform-selective retinoic acid beta2 receptor agonist” (J Med Chem, 2005).

Data set [1] deals with T1, Retinoic acid receptor beta (Homo sapiens) (UniProt P10826).
T1 sequence (whole entry): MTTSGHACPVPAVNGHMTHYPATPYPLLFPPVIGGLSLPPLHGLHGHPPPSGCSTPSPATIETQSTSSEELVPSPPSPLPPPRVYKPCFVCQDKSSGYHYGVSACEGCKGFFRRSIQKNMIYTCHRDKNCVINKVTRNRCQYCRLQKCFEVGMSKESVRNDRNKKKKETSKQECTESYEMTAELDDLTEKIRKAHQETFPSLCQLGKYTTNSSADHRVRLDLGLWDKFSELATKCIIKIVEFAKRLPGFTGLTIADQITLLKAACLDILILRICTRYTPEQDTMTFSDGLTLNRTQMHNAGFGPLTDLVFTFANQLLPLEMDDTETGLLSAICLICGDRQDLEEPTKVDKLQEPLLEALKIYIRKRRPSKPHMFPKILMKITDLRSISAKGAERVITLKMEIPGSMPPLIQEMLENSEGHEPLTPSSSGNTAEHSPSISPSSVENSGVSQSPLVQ
Description: Efficacy against RARbeta1.

The target of data set [2] is T2, Retinoic acid receptor beta (Homo sapiens, UniProt P10826).
T2 sequence (P10826 whole entry): T1 sequence (whole entry)
Briefly: Transcriptional activity against RARbeta1. It counts as functional.

The target in data set [3] is T2, Retinoic acid receptor beta. Briefly: Transcriptional activity against RARbeta2. In kind it is functional.
For data set [4], the target named is T1, Retinoic acid receptor beta (Homo sapiens). Description: Efficacy against RARbeta2.
Data set [5] concerns MCF7. Briefly: Inhibition of DNA synthesis in MCF7 cells by [3H]thymidine incorporation. As to conditions: Homo sapiens. It counts as functional, cell-based.
The nature of data set [6]: Solubility at pH 7.4. The settings on record: buffer. It counts as physicochemical.
Data set [7] can be described thus: Distribution coefficient of the compound, log D. It counts as physicochemical. The settings on record: octanol/water.
Data set [8] can be described thus: Oral bioavailability in Rats. It counts as ADME, organism-based. As to conditions: rat, in vivo.
The nature of data set [9]: Partition coefficient of the compound, log P. The settings on record: octanol/water. In kind it is physicochemical.

≈ marks a conversion by molar mass, not a printed value. Calls of active or inactive are those of the source. The calls are words filed in the database; no cut-off is given here. A value given as a limit tells only on which side of the number the result lay.

For `CCCCc1ccc(-c2ccc(C(=O)O)cc2)cc1`, the Efficacy entry in data set [1] was “inactive”. Also, the EC50 is greater than 10 µM in data set [2] and 0.0631 µM in [3]. The Efficacy in data set [4] is 36%.
For `CCCCCCCCCc1ccc(-c2ccc(C(=O)O)cc2)cc1`, the values for the Efficacy in data set [1] and in data set [4] were 58% and 100%, respectively. Further, the EC50 is 0.316 µM in [2] and 0.0158 µM in data set [3].
As to `CCc1ccc(-c2ccc(C(=O)O)cc2)cc1`, the Efficacy entry in [1] and in data set [4] was “inactive” each time.
`CC1(C)CCC(C)(C)c2cc(C(=O)Nc3ccc(C(=O)O)cc3)ccc21` displayed an Efficacy in data set [4] of 100%.
`CCCCCc1ccc(-c2ccc(C(=O)O)cc2)cc1`: in data set [1], the Efficacy result was “inactive”. In addition, the EC50 in [2] was greater than 10 µM; in data set [3] it was 0.0158 µM. In addition, in data set [4], the Efficacy was found to be 38%.
Take `CCCCCCCCc1ccc(-c2ccc(C(=O)O)cc2)cc1`: the figures for the Efficacy in data set [1] and in data set [4] were 31% and 92%, respectively. Also, the EC50 in data set [2] is greater than 10 µM; in data set [3], 0.126 µM. For the same compound, in data set [5], the outcome was Active. Further, the solubility in data set [6] was less than 1 µg/mL.
As to `CCCCCCc1ccc(-c2ccc(C(=O)O)cc2)cc1`, the Efficacy entry in data set [1] was “inactive”. In addition, the EC50 in [2] was greater than 10 µM; in [3] it was 0.0501 µM. The same compound yielded an Efficacy in [4] of 37%.
In the same order, the values of `CCCCCCCc1ccc(-c2ccc(C(=O)O)cc2)cc1` are “inactive”, greater than 10 µM, 0.0251 µM and 64%.
Take `CCCc1ccc(-c2ccc(C(=O)O)cc2)cc1`: the Efficacy entry in data set [1] and in data set [4] was “inactive” throughout.
With `CCCCOCCOc1nc(-c2ccc(C(=O)O)c(F)c2)sc1C`, the Efficacy in data set [1] was 40%; in data set [4] it was 96%. In [7], this compound came in with a logD of 1.4. The same compound gave a bioavailability in data set [8] of 52%. Also, the logP in [9] is 5.1. The same compound came in with a solubility in [6] of 4800 µg/mL (≈ 13.6 mM).
